Test results from patent US20150104868A1, “Methods of Maintaining and Improving Biological Cell Function and Activity” (GARGILL INCORPORATED, priority 2012, published 2015).

Legend:
[1] = in vitro; cited from earlier work
[2] = test system: Beta cells (Cell line: HIT-T15); test: HIT-T15 beta cell viability (trypan blue, Countess); type: cell-based; details: 6, 15 or 30 mM glucose 24 hours, with or without 5 mM ERT
Protocol: Beta cells (Cell line: HIT-T15) were obtained from supplier ATCC. The cells were seeded in 24 well plate (300,000 cells/well). After overnight attaching, the medium was removed and the cells were washed with HBSS. […] After 1 hour incubation, glucose solution was added to a final concentration of 6, 15, or 30 mM in the wells. Subsequently, the cells were incubated for 24 hours. After incubation, all cell material including medium and HBSS was collected and centrifuged (5 minutes, 500×g). The supernatant was removed and the cells were resuspended in 500 μl HBSS. The cell suspensions were diluted 1:1 in 0.4% trypan blue dye and loaded in a Countess Chamber. The cells were counted using the Countess cell counter, which calculated the viability (function and activity) of the cells.

[3] = in vivo, po; cited from earlier work
[4] = Human study in patients with Type 2 diabetes mellitus (blood glucose, insulin, C-peptide); type: in vivo; details: Type 2 diabetes patients, 12 g three times daily 28 days; before vs 2 hrs after 12 g intake
Protocol: A human study was conducted in patients with Type 2 diabetes mellitus. Patients were enrolled who were otherwise healthy patients with Type 2 diabetes mellitus as defined by fasting blood glucose >125 mg/dl or with ongoing treatment for Type 2 diabetes mellitus with the exception of insulin. […] Two hours after, blood drawings were taken again. […] After testing each variable for normality, a paired t-test was performed to determine statistical significance. For variables with a non-normal distribution, a Wilcoxon signed rank test was used. All analyses were performed using SPSS (IBM, version 19). Compliance was determined based on a count of empty sachets returned by study participants. Twenty-four subjects were enrolled and none withdrew from the study.

[5] = test system: Superoxide dismutases (total SOD, SOD1, SOD2); test: SOD activity, expression and protein levels in HUVEC; type: cell-based, human
From the text: One of the reactive oxygen species of which the production is likely to be increased during hyperglycemia is the superoxide radical (O2•—), potentially due to an over-activation of the mitochondrial respiratory chain. Superoxide dismutases (SODs) constitute a family of enzymes that effectively reduces the amount of superoxide radicals by turning them into hydrogen peroxide and oxygen. SODs occur in the cytoplasma (copper, zinc SOD or SOD1) and in the mitochondrion (manganese SOD or SOD2). A third form (SOD3 or EC-SOD) is found extracellularly. […] Accordingly, the expression protein and activity levels of SOD2 (which is the inducible SOD) SOD1 and total SOD activity were studied.
The total SOD activity (U/mg protein), SOD1 activity, SOD2 activity, SOD2 expression (by RT-PCR), and SOD2 protein (by Western blot) were not affected by HGERT vs HG […].

7B2, PC1/3, PC2 = test: RT-PCR gene expression of insulin production related genes in 1.1E7 cells; type: cell-based, human; details: 1.1E7 cells, 10, 30, 45 mM glucose, 24 hours or 7 days, 5 mM ERT
Protocol: (§1) Cell culture: Human 1.1E7 beta cells were cultured in RPMI 1640 medium containing 10% fetal calf serum, 2 mM L-Glutamine and 1% penicillin/streptomycin. Cells were maintained at 37° C. in a 5% CO2 atmosphere.
Gene expression analysis: RNA was isolated from Qiazol suspended cells according to the manufacturer's protocol and quantified spectrophotometrically. Reverse transcription reaction was performed using 500 ng of RNA, which was reverse-transcribed into cDNA using iScript cDNA synthesis kit. Next, real time PCR was performed with a BioRad MyiQ iCycler Single Color RT-PCR detection system using Sensimix™Plus SYBR and Fluorescein, 5 μl diluted (10×) cDNA, and 0.3 μM primers in a total volume of 25 μl. PCR was conducted as follows: denaturation at 95° C. for 10 minutes, followed by 40 cycles of 95° C. for 15 seconds and 60° C. for 45 seconds. After PCR a melt curve (60-95° C.) was produced for product identification and purity. Actin was included as internal control. Data were analyzed using the MyIQ software system (Bio-Rad Laboratories BV, Veenendaal, the Netherlands) and were expressed as relative gene expression (fold change) using the 2^ΔΔCt method.
PC1/3 and PC2 are proprotein or prohormone covertases. […] 7B2 is a small neuroendocrine protein that is required for the production of active prohormone convertase 2 (PC2)

erythrocytes = details: in vitro model of radical-induced hemolysis; cited from earlier work
[6] = test system: Mouse intestine (entero-endocrine) STC-1 cells; details: STC-1 cells, 10% w/v, 2 hours at 37° C.
Protocol: Appropriate blanks, positive controls, and standards were also included.
The lactate dehydrogenase (LDH) leakage from cells was analyzed in the supernatants as a marker for cytotoxic cell death.

HUVEC cells = test: Lipid peroxidation: malondialdehyde (MDA) in HUVEC; type: cell-based, human; details: 30 mM glucose, with or without 5 mM ERT
Protocol: The prepared cells were seeded in 6 well plates and T75 flasks and grown until 80% confluence. The medium was removed, and the cells were washed with Hank's Balanced Salt Solution (HBSS). […] The vehicle solution is the solvent for the test compounds, in this case being the medium without supplements. […] The cells described above were also incubated for 24 hours with a 7 mM, normal glucose (NG) solution or in some instances, with a 15 mM, intermediary glucose (IG) solution. See, for example, FIG. 6. Subsequently, the cells were incubated for 24 hours. The same protocol was used for incubation with Nε-(carboxymethyl)lysine (CML, final concentration 1 micromolar) and 1,3-morpholino sidnonimine (SIN-1, final concentration 0.5 mM).

Human 1.1E7 beta cells = test: 1.1E7 beta cell viability (trypan blue, Countess); type: cell-based; details: 10, 30, 45 mM glucose, with or without 5 mM ERT
Protocol: as §1
Viability: Cells were seeded in a 24 well plate. After overnight attaching, the medium was removed and cells were washed with HBSS. […] After 1 hour incubation a vehicle or glucose solution was added to a final concentration of 10, 30 or 45 mM in the wells. Subsequently, cells were incubated for 24 hours, 48 hours, 6 days, and 7 days. After incubation, all cell material including medium and HBSS was collected and centrifuged (5 minutes, 500×g). Supernatant was removed and cells were resuspended in 100 μl HBSS. Cell suspensions were diluted 1:1 in 0.4% trypan blue dye and loaded in a Countess Chamber. Cells were counted using the Invitrogen Countess® automated cell counter (Life Technologies Europe BV, Bleiswijk, the Netherlands).

**Q.** What does the source list for OC[C@@H](O)[C@@H](O)CO [ERT, meso-1,2,3,4-tetrahydroxybutane]?
**A.** hydroxyl radical scavenging [1]: effective in scavenging hydroxyl radicals; superoxide or peroxynitrite scavenging activity [1]: does not possess any superoxide or peroxynitrite scavenging activity; viability (function and activity) of HIT-T15 cells [2]: attenuated this decrease significantly; excretion [3]: excreted unchanged in the urine; metabolism [3]: not metabolized; blood C-peptide levels [4]: increase in blood C-peptide levels; blood glucose levels [4]: borderline significant decrease in blood glucose levels; blood insulin levels [4]: non-significant increase in insulin levels; total SOD activity, SOD1 activity, SOD2 activity, SOD2 expression (RT-PCR), SOD2 protein (Western blot) ([5]; HGERT vs HG): not affected; transcription and protein levels of SOD2 ([5]; HUVEC): did not affect transcription or the protein levels of SOD2; total superoxide dismutase activity ([5]; hyperglycemic conditions, effect not significant): appeared to increase the total superoxide dismutase activity; gene expression of 7B2, PC1/3 and PC2 (7B2, PC1/3, PC2): improved the expression of genes involved in the conversion of (pre)proinsulin to insulin; onset of oxidative damage, ABTS-induced hemolysis (erythrocytes): able to delay the onset of oxidative damage; cell death (leakage of lactate dehydrogenase) [6]: cells could tolerate higher concentrations of ERT than glucose and other sugars tested; malondialdehyde (MDA), end product of lipid peroxidation (HUVEC cells): Neither the exposure of the HUVEC cells to 5 mM ERT and 30 mM glucose (HGERT) nor to HG aloneaffected; viability of 1.1E7 cells (Human 1.1E7 beta cells; 6 and 7 days): entirely prevented this decrease in beta cell viability; viability of 1.1E7 cells (Human 1.1E7 beta cells; 24 and 48 hours): did not have any impact on this maintained viability
